Experimental findings from patent publication US20260372306A1, “MICROBIOCIDAL HETEROBICYCLIC DIHYDROOXADIAZINE DERIVATIVES” (SYNGENTA CROP PROTECTION AG, priority 2022, published 2026) are described below.

One test relates to Alternaria solani. Nature of the test: Alternaria solani (Early Blight of Tomato), tomato leaf disks, preventative. Format: in vivo. Particulars: 200 ppm; tomato leaf disks cv. Baby; inoculated 2 days after application; assessed 5-7 days after application. On the procedure:
(§1) Leaf disks or leaf segments of various plant species are cut from plants grown in a greenhouse. The cut leaf disks or segments are placed in multiwell plates (24-well format) onto water agar. The leaf disks are sprayed with a test solution before (preventative) or after (curative) inoculation. Compounds to be tested are prepared as DMSO solutions (max. 10 mg/mL) which are diluted to the appropriate concentration with 0.025% Tween20 just before spraying. The inoculated leaf disks or segments are incubated under defined conditions (temperature, relative humidity, light, etc.) according to the respective test system. A single evaluation of disease level is carried out 3 to 14 days after inoculation, depending on the pathosystem. Percent disease control relative to the untreated check leaf disks or segments is then calculated.
Tomato leaf disks cv. Baby are placed on agar in multiwell plates (24-well format) and sprayed with the formulated test compound diluted in water. […] The inoculated leaf disks are incubated at 23 °C/21 °C (day/night) and 80% rh under a light regime of 12/12 h (light/dark) in a climate cabinet and the activity of a compound is assessed as percent disease control compared to untreated when an appropriate level of disease damage appears on untreated check disk leaf disks (5-7 days after application).

For the next test, the system named is Botryotinia fuckeliana. Nature of the test: Botryotinia fuckeliana syn. Botrytis cinerea (Gray Mould of Grapevine), growth inhibition in nutrient broth. Format: cell-based. The note with it: Vogels broth, 24 °C, photometric, 3-4 days after application, read-out: control of Botryotinia fuckeliana (inhibition of growth). Here is the method:
(§2) Mycelia fragments or conidia suspensions of a fungus prepared either freshly from liquid cultures of the fungus or from cryogenic storage, are directly mixed into nutrient broth. DMSO solutions of the test compound (max. 10 mg/mL) are diluted with 0.025% Tween20 by a factor of 50 and 10 μL of this solution is pipetted into a microtiter plate (96-well format). The nutrient broth containing the fungal spores/mycelia fragments is then added to give an end concentration of the tested compound. The test plates are incubated in the dark at 24 °C and 96% relative humidity. The inhibition of fungal growth is determined photometrically after 2 to 7 days, depending on the pathosystem, and percent antifungal activity relative to the untreated check is calculated.
Conidia of the fungus from cryogenic storage are directly mixed into nutrient broth (Vogels broth). After placing a (DMSO) solution of test compound into a microtiter plate (96-well format), the nutrient broth containing the fungal spores is added. The test plates are incubated at 24 °C and the inhibition of growth is determined photometrically 3-4 days after application.

The next test deals with Glomerella lagenarium. Nature of the test: Glomerella lagenarium syn. Colletotrichum lagenarium (Anthracnose of Cucurbits), growth inhibition in nutrient broth. The test is classed as cell-based. Particulars: Colletotrichum orbiculare, PDB potato dextrose broth, 24 °C, photometric, 3-4 days after application, read-out: control of Glomerella lagenarium (inhibition of growth). Here is the method: as §2
Conidia of the fungus from cryogenic storage are directly mixed into nutrient broth (PDB potato dextrose broth). After placing a (DMSO) solution of test compound into a microtiter plate (96-well format), the nutrient broth containing the fungal spores is added. The test plates are incubated at 24 °C and the inhibition of growth is measured photometrically 3-4 days after application.

In the next test the test system is Pyrenophora teres. Nature of the test: Pyrenophora teres (Net Blotch of Barley), barley leaf segments, preventative. The test is classed as in vivo. The note with it: 200 ppm; barley leaf segments cv. Hasso; inoculated 2 days after application; assessed 5-7 days after application. On the procedure: as §1
Barley leaf segments cv. Hasso are placed on agar in a multiwell plate (24-well format) and sprayed with the formulated test compound diluted in water. […] The inoculated leaf segments are incubated at 20 °C and 65% rh under a light regime of 12 h light/12 h darkness in a climate cabinet and the activity of a compound is assessed as disease control compared to untreated when an appropriate level of disease damage appears in untreated check leaf segments (5-7 days after application).

A further test relates to Sclerotinia sclerotiorum. Description: Sclerotinia sclerotiorum (Cottony Rot of Oilseed Rape), growth inhibition in nutrient broth. The test is classed as cell-based. The note with it: PDB potato dextrose broth, 24 °C, photometric, 3-4 days after application, read-out: control of Sclerotinia sclerotiorum (inhibition of growth). Here is the method:
as §2
Mycelia fragments of a newly grown liquid culture of the fungus are directly mixed into nutrient broth (PDB potato dextrose broth). After placing a (DMSO) solution of test compound into a microtiter plate (96-well format) the nutrient broth containing the fungal material is added. The test plates are incubated at 24 °C and the inhibition of growth is determined photometrically 3-4 days after application.

In a further test the test system is Monographella nivalis. Nature of the test: Monographella nivalis syn. Microdochium nivale, Fusarium nivale (Snow Mould, Foot Rot of Cereals), growth inhibition in nutrient broth. The note with it: PDB potato dextrose broth, 24 °C, photometric, 4-5 days after application, read-out: control of Monographella nivalis (inhibition of growth). Format: cell-based. On the procedure:
as §2
(§3) Conidia of the fungus from cryogenic storage are directly mixed into nutrient broth (PDB potato dextrose broth). After placing a (DMSO) solution of test compound into a microtiter plate (96-well format), the nutrient broth containing the fungal spores is added. The test plates are incubated at 24 °C and the inhibition of growth is determined photometrically 4-5 days after application.

Test [1] deals with Mycosphaerella graminicola. Description: Mycosphaerella graminicola (Septoria tritici) (Septoria Blotch), growth inhibition in nutrient broth. The note with it: Zymoseptoria tritici, read-out: control of Mycosphaerella gramminicola (inhibition of growth). Format: cell-based. Here is the method:
as §2, §3

Take `Clc1ccc(CC2CON=C(c3c(Oc4cccc(C5CC5)c4)cnc4ccnn34)N2)c(Cl)c1` (stereo not shown) [Compound 1.1, 3-[6-(3-cyclopropylphenoxy)pyrazolo[1,5-a]pyrimidin-7-yl]-5-[(2,4-dichlorophenyl)methyl]-5,6-dihydro-4H-1,2,4-oxadiazine]: the “control of Alternaria solani (percent disease control compared to untreated)” value with Alternaria solani is recorded as “at least 80%”. In addition, the inhibition at 20 ppm in the test on Botryotinia fuckeliana, with Glomerella lagenarium and with Sclerotinia sclerotiorum was at least 80% in each case. For the same compound, in the test with Pyrenophora teres, the “control of Pyrenophora teres (disease control compared to untreated)” value is on record as “at least 80%”.

As for `Clc1ccc(CC2CON=C(c3c(Oc4cccc(C5CC5)c4)cnc4c(Cl)cnn34)N2)c(Cl)c1` (stereo not shown) [Compound 1.2, 3-[3-chloro-6-(3-cyclopropylphenoxy)pyrazolo[1,5-a]pyrimidin-7-yl]-5-[(2,4-dichlorophenyl)methyl]-5,6-dihydro-4H-1,2,4-oxadiazine], the inhibition (in general, the drop in the measured response relative to a control, in per cent) at 20 ppm in the test on Botryotinia fuckeliana is at least 80%.

On to `Fc1cc2ncc(Oc3cccc(C4CC4)c3)c(C3=NOCC(Cc4ccc(Cl)cc4Cl)N3)n2n1` (stereo not shown) [Compound 1.3, 3-[6-(3-cyclopropylphenoxy)-2-fluoro-pyrazolo[1,5-a]pyrimidin-7-yl]-5-[(2,4-dichlorophenyl)methyl]-5,6-dihydro-4H-1,2,4-oxadiazine], for which the inhibition at 20 ppm with Botryotinia fuckeliana is at least 80%.

On to `Clc1ccc(CC2CON=C(c3c(Oc4cccc(C5CC5)c4)cnc4cc(Cl)nn34)N2)c(Cl)c1` (stereo not shown) [Compound 1.4, 3-[2-chloro-6-(3-cyclopropylphenoxy)pyrazolo[1,5-a]pyrimidin-7-yl]-5-[(2,4-dichlorophenyl)methyl]-5,6-dihydro-4H-1,2,4-oxadiazine], for which, in the test on Botryotinia fuckeliana, the inhibition at 20 ppm was at least 80%.

For `Clc1ccc(CC2CON=C(c3c(Oc4cccc(C5CC5)c4)cnn4ccnc34)N2)c(Cl)c1` (stereo not shown) [Compound 1.5, 3-[7-(3-cyclopropylphenoxy)imidazo[1,2-b]pyridazin-8-yl]-5-[(2,4-dichlorophenyl)methyl]-5,6-dihydro-4H-1,2,4-oxadiazine], the inhibition at 20 ppm (in the test with Botryotinia fuckeliana; in the test on Glomerella lagenarium; in the test on Monographella nivalis; with Sclerotinia sclerotiorum; in test [1]) was at least 80% in each case.
